We go through 16 compounds from patent publication US6149937A, “Liposome encapsulated amphiphilic drug compositions” (priority 1996, dated 2000).

Like-named read-outs stand apart in the source and are kept apart here. *1 amine or outer side, *2 acyl side, *3 side chain or, on linkers, in order; H or OH if unused. Where a SMILES comes first, the peptide text is derived from it. Bridges are numbered along the chain shown (N, C = ends). Roman numbers before positions name the chains, in order. [ ]: non-standard residue; d: D form. Actinocin(9to1) = Cc1c2oc3c(C)ccc(C(=O)[*:1])c3nc-2c(C(=O)[*:2])c(N)c1=O; NMeV = CN[CH](C(=O)O)C(C)C; Sar = CNCC(=O)O

Data set [1] can be described thus: Crystals in liposomal BP^0 formulations. It counts as physicochemical. The procedure: These films were hydrated by 1 ml buffer at pH 8.1 and suspended as MLVs with bupivacaine crystals inside and outside the phospholipid […] by freeze-etching electron microscopy. […] This film was suspended as MLVs in 1 ml buffer pH 8.1. […] No crystals were detected from the ratio 17 and above (Table VII).

Data set [2] can be described thus: Rate of release of BP^+ from MLVs at pH 7.4. The data set is classed as physicochemical. The procedure: A further preparation of liposomal BP^+ pH 6.5 prepared as described above was inserted into a dialysis bag (5 ml containing 353.25 mg EPC and 25 mg BP^+). The bag was immersed in 145 ml PBS pH 7.4 with a renewal rate of 23 ml/hour. Samples of the pH 7.4 medium were harvested at different times and the concentration of bupivacaine was measured by UV spectrophotometry.

For data set [3] the following is noted: cited from earlier work; for animal or human results of liposome association: lipid-layer encapsulated.
Data set [4] is described as follows: Entrapment of BP^+ into MLVs. The data set is classed as physicochemical. The settings on record: for encapsulation efficiency: EPC/BP^+ 6, pH 6.5. The procedure:
The bupivacaine concentration was measured by UV spectrophotometry at 271.6 nm. After extraction of BP^+ in chloroform with EPC, 27.5 mg of cholesterol were added thereto. After evaporation of the organic solvent under an inert atmosphere and drying of the lipid film, hydration was carried out at pH 6.5. The encapsulation efficiency was measured by UV spectrophotometry at 271.6 nm.

For data set [5] the following is noted: not told.
Data set [6] is described as follows: Release of bupivacaine from the liposomal BP^0 formulation at pH 7.4. The data set is classed as physicochemical.
For data set [7] the following is noted: cited from earlier work.
For data set [8] the following is noted: cited from earlier work. The source holds these as a separate data set.
The conditions of data set [9]: cited from earlier work. This is another data set of the same source.
For data set [10] the following is noted: cited from earlier work. The source holds these as a separate data set.
Assay in data set [11]: not given
The source holds these as a separate data set.

For data set [12] the following is noted: pH 7.8.
For data set [13] the following is noted: pH 7.4, 37° C.
The nature of data set [14]: Entrapment of MP^+ into MLVs. The data set is classed as physicochemical. The settings on record: EPC/morphine 98, pH 4.5, n=5, referred to 1 mg initially dissolved.
Data set [15] can be described thus: MP^0 release from MLVs (dialysis bag, PBS pH 7.4). The data set is classed as physicochemical.
In a further data set the test system is bacteria. To be noted: References 30-33; listed as oxine; cited from earlier work.
For data set [16] the following is noted: 10 ml PBS pH 7.4.
For data set [17] the following is noted: EPC/oxine 4.8, pH 7.4.
Assay in data set [18]: not given
This is another data set of the same source.

Data set [19] in a line: Entrapment of tin(II) dioxinate into MLVs. The data set is classed as physicochemical. The procedure:
Egg yolk phosphatidylcholine (14.4 mg, 18.3 μmol) and cholesterol (5.6 mg, 13.7 μmol) were dissolved in chloroform with 0.1, 0.2, 0.3, 0.4, 0.5 mg (1.2 μmol) and 0.6 mg tin(II) dioxinate. After evaporation of the solvent, hydration occurred with NaCl 150 mM 1 ml. The MLVs thus prepared were washed 5 times in order to discard free tin(II) dioxinate.
The number of tin(II) dioxinate molecules inserted into liposomes increased with the number of SnOx2 molecules present in the preliposomal lipid film. Liposomal saturation occurred for a number of moles averaging 1.23 μmoles SnOx2 inserted into 18.3 μmoles EPC (EPC/SnOx2 mole ratio of 15) with an encapsulation efficiency of 30% for MLVs.

Data set [20] in a line: Release of tin(II) dioxinate from MLVs at pH 7.4. It counts as physicochemical.
Data set [21] in a line: Cell membrane permeation predicted by TAMMO combined with liposomal entrapment and release assays. To be noted: concluded from TAMMO and liposome assays.
Where [22] appears, read: formulation with crystals, pH 7.4.

Consider `CCCCN1CCCCC1C(=O)Nc1c(C)cccc1C` (centres unmarked) [BP^0], for which the “Crystals” value is recorded as “No crystals” in [1] (EPC/BP ratio 17 and above); “presence of bupivacaine crystals” in [1] (EPC/BP ratio up to 16); “without crystals” in data set [1] (EPC/BP^0 ratio 13 or above); 0 in data set [1] (EPC/BP^0 ratio 17); 0 in [1] (EPC/BP^0 ratio 20); 0 in [1] (EPC/BP^0 ratio 22). The Crystals in data set [1] (EPC/BP^0 ratio 25) was 0. The duration of release is 24 to 48 h in data set [2] (1 ml formulation, pH 7.4) and 72 h in data set [2] (5 ml formulation in dialysis bag, pH 7.4). In addition, the “time to maximal concentration” value in data set [2] (1 ml formulation, pH 7.4) is 6 to 12 h; in data set [6] (setting [22]) it was 6 to 12 h. Besides, the “rapid transfer of unencapsulated bupivacaine” value in data set [2] (6 hour, 5 ml in dialysis bag, pH 7.4) is given as 25%. Also, the Release in data set [2] (Table III, PL/X 5) was 72 h; in [6] (Table III, PL/X 5), 24 to 48 h. Besides, the “sensory block” value in data set [3] (BP^+ in liposomal aqueous phase, Reference 13) is listed as “prolongation of the sensory block”. The “motor block” value in data set [3] (BP^+ in liposomal aqueous phase, Reference 29) is recorded as “outlasted the analgesic action”. Besides, the “AE (encapsulation efficiency)” value in data set [4] (Table III, PL/X 5) was 75%. The encapsulation efficiency in data set [4] (after 2 hours) is on record as 60±1%; in data set [4] (after 24 hours), 74±0.5%. The “BP^+ inserted into MLVs” value in data set [4] (from 5 mg BP^+, 70.65 mg EPC) was found to be 3.7 mg. In addition, the “ability to cross cell membranes” value in data set [5] is “able to cross cell membranes”. Besides, the “release compared with crystal-containing formulation” value in data set [6] (crystal-free) is “slower”. The compound also registered a peak concentration in data set [6] (crystal-free, 230.56 mg EPC, 5 mg BP^0, pH 7.4) of 5 to 8 µg/mL. Also, the “time to complete clearance” value in data set [6] (crystal-free, pH 7.4) is listed as 3 days. The same compound had a time to peak in data set [6] (crystal-free, pH 7.4) of 6 h. The compound further gave a maximal concentration in data set [6] (formulation with crystals, 14.4 mg EPC, 5 mg BP^0, pH 7.4, 37° C.) of 7 to 8 µg/mL. Further, the “time to release of the whole amount” value in data set [6] (setting [22]) was determined as 2 days.
`CCN(CC)CCOC(=O)c1ccc(N)cc1` [Procaine, procaine]: the “Log Poct” value in data set [7] (octanol/water) is -1.7.
As to `Clc1cccc(Cl)c1N=C1NCCN1` [Clonidine, clonidine], the “pK / pKa” value in data set [8] is recorded as 8.2. Moreover, the “Log Poct” value in [7] (octanol/water) was 1.59. Moreover, the “duration of hypotensive action” value in data set [9] (human, in vivo) was 1 days. Besides, the “leakage from vesicles after 1 hour” value (pH 7.4, after 1 hour) is listed as “Almost all”. The “solubility in organic solvents” value in data set [10] is on record as “soluble in octanol when uncharged”. Besides, the “solubility in aqueous medium” value in data set [10] (water or acidic solution) is listed as “highly soluble in acidic solution as a cation”. In [11] (14.4 mg EPC, 0.5 mg CL^0, pH 7.8, n=6), the encapsulation efficiency was 14.5%±0.4.
As to `CN1CC[C@]23c4c5ccc(O)c4O[C@H]2[C@@H](O)C=C[C@H]3[C@H]1C5` [Morphine, morphine], in data set [9] (intramuscular, epidural or intrathecal), the duration of action was at least 12 h.
Turning to `CCOC(=O)C1(c2ccccc2)CCN(C)CC1` [Meperidine, meperidine], the “Log Poct” value in data set [7] (octanol/water) is 1.3.
On to `Cc1cccc(C)c1NC(=O)C1CCCCN1C` (centres unmarked) [Mepivacaine, mepivacaine], for which, in [8] (Table II), the pKs is reported as 7.76. In addition, in data set [7] (octanol/water), the “Log Poct” value is reported as -0.1.
`CCCNC(C)C(=O)Nc1ccccc1C` (centres unmarked) [Prilocaine, prilocaine]: the “Log Poct” value in [7] (Table II) is -0.05.
On to `Clc1cccc(Cl)c1NC1=NCCN1` [CL^0], for which, where the note is “Table III, PL/X 5”, the Release came to 0.5 h. Moreover, in data set [11] (Table III, PL/X 5), the “AE (encapsulation efficiency)” value came out at 14.5%. For the same compound, the figures for the proportion of species in data set [12] and in [12] (listed as CL^+) were 28.5% and 71.5%, respectively.
Consider `CCCN(CC)C(CC)C(=O)Nc1c(C)cccc1C` (centres unmarked) [Etidocaine, etidocaine], for which, in data set [7] (octanol/water), the “Log Poct” value is 2.1.
For the compound `CCN(CC)CCOC(=O)c1ccc(N)cc1Cl` [Chlorprocaine, chlorprocaine], the “Log Poct” value in [7] (Table II) is on record as -0.8.
`CN1CC[C@]23c4c5ccc(O)c4O[C@H]2[C@@H](O)C=C[C@H]3[C@H]1C5` [MP^0]: the “duration of slow decrease of concentration” value in data set [13] was 3 days. For the same compound, the “time to maximal concentration” value in data set [13] came to 1 h. The compound further displayed an encapsulation in data set [14] of 31.2±2.1%. The “crystals in the dialysis bag at the end of release” value in data set [15] (EPC/MP^0 10) is reported as “No crystals”. Further, the “Release” value is “sustained and prolonged” in data set [15] (EPC/MP^0 10, 26 and 52); 48 h in data set [15] (Table III, PL/X 10); 30 h in [15] (Table III, PL/X 26); 24 h in data set [15] (Table III, PL/X 52). For the same compound, the duration of release was 48 h in data set [15] (EPC/MP^0 10, pH 7.4); 30 h in [15] (EPC/MP^0 26, pH 7.4); 24 h in data set [15] (EPC/MP^0 52, pH 7.4).
In the case of `Oc1cccc2cccnc12` [Oxine, 8-hydroxyquinoline], in the data set on bacteria, the “bactericidal activity (words)” value is recorded as “acts as a bactericidal agent by crossing the bacterial cell membrane”. For the same compound, the partition coefficient octanol/water in [7] (not logarithmic) is 67. In addition, the “time of release of a bulk of the liposomal compound” value in data set [16] turned out to be 20 min. Further, the “oxine entrapped in MLVs” value in [17] was 50%; in [17] (from 0.7 mg), 0.35 mg.
Regarding `CCCCN1CCCCC1C(=O)Nc1c(C)cccc1C` (centres unmarked) [Bupivacaine, bupivacaine], the “Log Poct” value in data set [7] (Table II) is 1.4. Moreover, the “Log Poct” value in [7] (Table III) was 3.6. In data set [7] (clonidine: octanol/buffer pH 7.4), the “log of the partition coefficient between water and octanol” value is reported as 1.8. For the same compound, in data set [9] (human, in vivo), the “plasma level at which systemic toxicity becomes apparent” value is about 1600 ng/mL and the therapeutic concentration was 1 µg/mL. Moreover, the “duration of analgesic action” value in data set [9] (peripheral nerve blocks) is “up to 12 hours”. Moreover, the “animal or human results of liposome association” value in data set [3] was “promising animal or effective human results”.
In the case of `CCCCNc1ccc(C(=O)OCCN(C)C)cc1` [Tetracaine, tetracaine], the “Log Poct” value in data set [7] (octanol/water) is reported as 0.6.
For the compound tin(II) dioxinate, the results for the “limit of solubility in chloroform” value in [18] (chloroform) and in data set [18] (chloroform with epc) were 400 µM and 4100 µM, respectively. In addition, the “SnOx2 inserted at liposomal saturation” value in [19] (18.3 μmoles EPC) is about 1.23 µmol. Also, the “EPC/SnOx2 mole ratio at saturation” value in data set [19] (MLVs) is 15. This compound also had an encapsulation efficiency in [19] (MLVs, EPC/SnOx2 15) of 30%. Besides, in data set [19] (Table III, PL/X 6), the “AE (encapsulation efficiency)” value was 30%. For the same compound, the Release in [20] (Table III, PL/X 6) is over 72 h; in data set [20] (pH 7.4, for at least one week) it was “no release”. In addition, the “ability to cross cell membranes” value in data set [21] is on record as “unable to cross the cell membrane”.
With `Cc1c2oc3c(C)ccc(C(=O)NC4C(=O)NC(C(C)C)C(=O)N5CCCC5C(=O)N(C)CC(=O)N(C)C(C(C)C)C(=O)OC4C)c3nc-2c(C(=O)NC2C(=O)NC(C(C)C)C(=O)N3CCCC3C(=O)N(C)CC(=O)N(C)C(C(C)C)C(=O)OC2C)c(N)c1=O` (centres unmarked) [actinomycin D] (I: TVP[Sar][NMeV] / II: TVP[Sar][NMeV]; ester I:1-I:C, II:1-II:C; linker I:N-II:N via Actinocin(9to1); configuration not given here), the “animal or human results of liposome association” value in data set [3] was “promising animal or effective human results”.
